Patent US20100249123A1, “NOVEL BENZAMIDE DERIVATIVES AS MODULATORS OF THE FOLLICLE STIMULATING HORMONE” (ADDEX PHARMA SA, priority 2007, published 2010)

Tests used:
[1] = target: T1, rat follicle stimulating hormone receptor (rFSHR) (Rattus norvegicus, UniProt P20395); assay: Intracellular cAMP measurement (HTRF) assay, antagonism of EC70 of hFSH; type: cell-based; conditions: HEK293 cells expressing rFSHR, 1 ng/ml hFSH (EC70), read-out: Class (IC50 to antagonise an EC70 of FSH receptors agonist such as hFSH)
T1 construct: expressed in transfected cells
T1 sequence (P20395 18-692): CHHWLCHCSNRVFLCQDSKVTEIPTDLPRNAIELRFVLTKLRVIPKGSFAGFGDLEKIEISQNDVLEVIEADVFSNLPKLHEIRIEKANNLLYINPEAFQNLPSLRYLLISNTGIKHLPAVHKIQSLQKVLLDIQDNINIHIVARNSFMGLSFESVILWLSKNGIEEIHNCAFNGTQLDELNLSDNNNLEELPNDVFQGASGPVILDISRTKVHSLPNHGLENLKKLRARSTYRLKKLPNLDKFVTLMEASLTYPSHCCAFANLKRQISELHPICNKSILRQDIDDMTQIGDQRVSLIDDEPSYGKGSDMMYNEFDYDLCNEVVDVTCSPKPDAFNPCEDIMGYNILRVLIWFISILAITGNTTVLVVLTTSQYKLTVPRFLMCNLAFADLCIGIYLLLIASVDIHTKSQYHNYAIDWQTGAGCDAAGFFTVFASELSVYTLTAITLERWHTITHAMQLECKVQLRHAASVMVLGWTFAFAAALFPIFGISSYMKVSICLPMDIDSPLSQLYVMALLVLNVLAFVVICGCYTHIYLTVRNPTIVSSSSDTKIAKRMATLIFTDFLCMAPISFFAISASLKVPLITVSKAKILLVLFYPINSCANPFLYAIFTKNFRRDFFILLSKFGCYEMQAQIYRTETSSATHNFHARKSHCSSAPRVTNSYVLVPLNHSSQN
Description: Intracellular cAMP Measurement Assay
The Intracellular cAMP measurement assay is a functional cell-based assay used to study GPCR function. This method relies on a Time-Resolved Fluorescence (HTRF) assay to measure the cAMP accumulation upon receptor-mediated Gs protein activation in cells expressing recombinant GPCR or in cells from native tissues. In brief, this method is a competitive immunoassay between native cAMP produced by cells and the cAMP labeled with a fluorescent tag. The endogenously produced cAMP competes with exogenous added d2-labelled cAMP for the cAMP binding site on a Eu3+ cryptate labelled anti-cAMP antibody. The d2-labelled cAMP and the Eu^3+ labelled antibody produces a basal fluroresence via HTRF and therefore an intracellular increase in unlabelled cAMP is detected as decrease in this signal. cAMP is one of the most important intracellular mediators. Its concentration in cells can be increased upon binding of many hormones to their receptors. The most studied pathway consists in the release of α-subunit GTP-binding proteins following ligand-receptor interaction, which in turn activates or inhibits the ATP/cAMP conversion function of adenylate cyclase enzyme. cAMP is then involved in many complex regulatory processes such as protein kinase activation or ion channel gating. This method is widely used to study receptor activation of G protein in cells over-expressing GPCRs or in native cells, including FSH receptors expressing cells (Gabriel et al., Assay Drug Dev. Technol., 1, 291-303, 2003).
Transfection and cell culture: The cDNA encoding the rat follicle stimulating hormone receptor (rFSHR), (accession number NM_199237, NCBI Nucleotide database browser) was subcloned into an expression vector containing also the hygromycin resistance gene. Transfection of this vector into HEK293 cells with PolyFect reagent (Qiagen) according to supplier's protocol, and hygromycin treatment allowed selection of antibiotic resistant cells which had integrated stably one or more copies of the plasmid. Positive cellular clones expressing rFSHR were identified in a functional assay measuring cAMP production in cells following stimulation by addition of purified human follicle stimulating hormone (hFSH).
HTRF cAMP assay: On the day of the experiment, cells were detached from the Petri dish and distributed in a low volume, black-walled 384-well plate at a density of 5,000 cells/well in an assay buffer containing 1 mM IBMX to prevent cAMP degradation by cytoplasmic phosphodiesterases. The determination of the cAMP accumulation was performed using an HTRF assay (Trinquet et al., Anal. Biochem., 358, 126-135, 2006). Briefly, cells were incubated for 3 min in the presence of increasing concentrations of negative allosteric modulators (from 1 nM to 60 μM) and then 30 min in the presence of 1 ng/ml of hFSH, an agonist of rat FSH receptor, that has been determined in previous experiments to correspond to the EC70, a concentration that gives 70% of the maximal response of the agonist, and is in accordance with published data (Fox et al., Mol. Endocrin., 15, 378-389, 2001). […] Cells were then lysed by adding the HTRF assay components, the europium cryptate-labeled anti-cAMP antibody, and the XL665-labeled cAMP analog, previously diluted in a HEPES buffer (50 mM, pH 7.0) containing 0.8 M potassium fluoride, 0.2% (w/v) BSA, and 1% (v/v) Triton X-100, a percentage of detergent that ensure complete cell lysis. Assay was then incubated for 1 hr at room temperature, and HTRF signal was measured after excitation at 337 nm, and dual emission at 620 and 665 nm, using a RubyStar fluorimeter (BMG Labtechnologies). Moreover, the fluorescence ratio of an appropriate range of known concentrations of cAMP standards was also included on each assay plate to produce a standard cAMP curve. […]

Row | melting point | IC50 [1] | Compound
1 | 195 to 197 °C | – | COc1ccc(C(=O)Nc2ccc(C(C)(C)CNC(C)=O)cc2)cc1OC [Example 26, N-[4-(2-Acetylamino-1,1-dimethyl-ethyl)-phenyl]-3,4-dimethoxy-benzamide]
2 | 165 to 167 °C | – | COc1ccc(C(=O)Nc2ccc(C3(CNC(=O)C(C)(C)C)CCCC3)cc2)cc1OC [Example 23, N-(4-{1-[(2,2-Dimethyl-propionylamino)-methyl]-cyclopentyl}-phenyl)-3,4-dimethoxy-benzamide]
3 | 59 to 61 °C | – | COc1ccc(C(=O)Nc2cccc(C3(C#N)CCCC3)c2)cc1OC [Example 14, N-[3-(1-Cyano-cyclopentyl)-phenyl]-3,4-dimethoxy-benzamide]
4 | 138 to 140 °C | – | CCOc1ccc(C(=O)Nc2ccc(C(C)(C)C#N)cc2)cc1OCC [Example 160, N-[4-(Cyano-dimethyl-methyl)-phenyl]-3,4-diethoxy-benzamide]
5 | 204 to 206 °C | – | COc1ccc(C(=O)Nc2ccc(C3(CNC(C)=O)CC3)cc2)cc1OC [Example 54, N-{4-[1-(Acetylamino-methyl)-cyclopropyl]-phenyl}-3,4-dimethoxy-benzamide]
6 | 139 to 141 °C | – | COc1ccc(C(=O)Nc2ccc(C(C)(C)C#N)cc2)cc1OC [Example 1, N-[4-(Cyano-dimethyl-methyl)-phenyl]-3,4-dimethoxy-benzamide]
7 | 196 to 199 °C | – | COc1ccc(C(=O)Nc2ccc(C(C)(C)C#N)c(-c3ccncc3)c2)cc1OC [Example 158, N-[4-(Cyano-dimethyl-methyl)-3-pyridin-4-yl-phenyl]-3,4-dimethoxy-benzamide]
8 | 142 to 144 °C | – | COc1cc(Cl)c(C(=O)Nc2ccc(C(C)(C)C#N)cc2)cc1OC [Example 155, 2-Chloro-N-[4-(cyano-dimethyl-methyl)-phenyl]-4,5-dimethoxy-benzamide]
9 | 186 to 188 °C | – | COc1ccc(C(=O)Nc2ccc(C(C)(C)CNC(C)=O)c(F)c2)cc1OC [Example 151, N-[4-(2-Acetylamino-1,1-dimethyl-ethyl)-3-fluoro-phenyl]-3,4-dimethoxy-benzamide]
10 | 101 to 104 °C | – | COc1ccc(C(=O)Nc2ccc(C3(CNC(=O)c4cscn4)CCCC3)cc2)cc1OC [Example 29, Thiazole-4-carboxylic acid {1-[4-(3,4-dimethoxy-benzoylamino)-phenyl]-cyclopentylmethyl}-amide]
11 | 67 to 69 °C | – | COC(=O)NCC(C)(C)c1ccc(NC(=O)c2ccc(OC)c(OC)c2)cc1 [Example 52, {2-[4-(3,4-Dimethoxy-benzoylamino)-phenyl]-2-methyl-propyl}-carbamic acid methyl ester]
12 | 195 to 198 °C | – | COc1ccc(C(=O)Nc2ccc(C(C)(C)C#N)cc2)c(Cl)c1OC [Example 153, 2-Chloro-N-[4-(cyano-dimethyl-methyl)-phenyl]-3,4-dimethoxy-benzamide]
13 | 190 to 191 °C | – | COc1ccc(C(=O)Nc2ccc(C(C)(C)CN3CCOC3=O)cc2)cc1OC [Example 60, N-{4-[1,1-Dimethyl-2-(2-oxo-oxazolidin-3-yl)-ethyl]-phenyl}-3,4-dimethoxy-benzamide]
14 | 164 to 167 °C | – | N#CC1(c2ccc(NC(=O)c3ccc4c(c3)OCCO4)cc2)CCCC1 [Example 3, 2,3-Dihydro-benzo[1,4]dioxin-6-carboxylic acid [4-(1-cyano-cyclopentyl)-phenyl]-amide]
15 | – | 150 to 400 nM | COc1ccc(C(=O)Nc2ccc(C(C)(C)CCNC(=O)c3cnc4[nH]cnc4c3)cc2)cc1OC [Example 199, 3H-Imidazo[4,5-b]pyridine-6-carboxylic acid {3-[4-(3,4-dimethoxy-benzoylamino)-phenyl]-3-methyl-butyl}-amide]
16 | – | 400 to 1000 nM | COc1ccc(C(=O)Nc2ccc(C(C)(C)CNC(=O)c3c[nH]c4cnccc34)cc2)cc1OC [Example 215]
17 | – | 150 to 400 nM | COc1ccc(C(=O)Nc2ccc(C(C)(C)CNC(=O)c3ccc4[nH]cnc4c3)cc2)cc1OC [Example 207]
18 | – | < 150 nM | COc1ccc(C(=O)Nc2ccc(C(C)(C)CNC(=O)c3cnc4[nH]ccc4c3)cc2)cc1OC [Example 202]
19 | – | ≥ 1000 nM | COc1ccc(C(=O)Nc2ccc(C(C)(C)CNC(=O)c3cn4cccnc4n3)cc2)cc1OC [Example 186]
20 | – | 150 to 400 nM | COc1ccc(C(=O)Nc2ccc(C(C)(C)CNC(=O)c3c[nH]c4ncc(F)cc34)cc2)cc1OC [Example 216]
21 | – | 400 to 1000 nM | COc1ccc(C(=O)Nc2ccc(C(C)(C)CNC(=O)c3ccc4c(c3)n(C)c(=O)n4C)cc2)cc1OC [Example 210]
22 | – | 150 to 400 nM | COc1ccc(C(=O)Nc2ccc(C(C)(C)CNC(=O)c3c[nH]c4ccccc34)cc2)cc1OC [Example 101, 1H-Indole-3-carboxylic acid{2-[4-(3,4-dimethoxy-benzoylamino)-phenyl]-2-methyl-propyl}-amide]
23 | – | 150 to 400 nM | COc1ccc(C(=O)Nc2ccc(C(C)(C)C#N)c(C(F)(F)F)c2)cc1OC [Example 99, N-[4-(Cyano-dimethyl-methyl)-3-trifluoromethyl-phenyl]-3,4-dimethoxy-benzamide]
24 | – | 150 to 400 nM | COc1ccc(C(=O)Nc2ccc(C(C)(C)CNC(=O)c3ccccn3)cc2)cc1OC [Example 74]
25 | – | ≥ 1000 nM | COc1ccc(C(=O)Nc2cccc(C3(CNC(=O)c4nn(C)c5ccccc45)CCCC3)c2)cc1OC [Example 102, 1-Methyl-1H-indazole-3-carboxylic acid{1-[3-(3,4-dimethoxy-benzoylamino)-phenyl]-cyclopentylmethyl}-amide]
26 | – | 150 to 400 nM | COc1ccc(C(=O)Nc2cc(Cl)c(C(C)(C)C#N)c(Cl)c2)cc1OC [Example 120, N-[3,5-Dichloro-4-(cyano-dimethyl-methyl)-phenyl]-3,4-dimethoxy-benzamide]
27 | – | ≥ 1000 nM | COc1ccc(C(=O)Nc2ccc(C(C)(CO)CNC(=O)c3cnc4ccccn34)cc2)cc1OC (centres unmarked) [Example 212, Imidazo[1,2-a]pyridine-3-carboxylic acid {2-[4-(3,4-dimethoxy-benzoylamino)-phenyl]-3-hydroxy-2-methyl-propyl}-amide]
28 | – | 150 to 400 nM | COc1ccc(C(=O)Nc2ccc(C(C)(C)CCNC(=O)c3cnc4ccccn34)cc2)cc1OC [Example 194, Imidazo[1,2-a]pyridine-3-carboxylic acid {3-[4-(3,4-dimethoxy-benzoylamino)-phenyl]-3-methyl-butyl}-amide]
29 | – | 400 to 1000 nM | COc1ccc(C(=O)Nc2ccc(C(C)(C)CCNC(C)=O)c(-c3cccnc3)c2)cc1OC [Example 221, N-(4-(4-acetamido-2-methylbutan-2-yl)-3-(pyridin-3-yl)-phenyl)-3,4-dimethoxybenzamide]
